In ChEMBL document CHEMBL1127965, “Synthesis of novel monocyclic squalestatin analogues as potential inhibitors of squalene synthase” (Bioorg Med Chem Lett, 1994):

Target: T1, Squalene synthase (Rattus norvegicus, UniProt Q02769)
T1 sequence (Q02769 whole entry): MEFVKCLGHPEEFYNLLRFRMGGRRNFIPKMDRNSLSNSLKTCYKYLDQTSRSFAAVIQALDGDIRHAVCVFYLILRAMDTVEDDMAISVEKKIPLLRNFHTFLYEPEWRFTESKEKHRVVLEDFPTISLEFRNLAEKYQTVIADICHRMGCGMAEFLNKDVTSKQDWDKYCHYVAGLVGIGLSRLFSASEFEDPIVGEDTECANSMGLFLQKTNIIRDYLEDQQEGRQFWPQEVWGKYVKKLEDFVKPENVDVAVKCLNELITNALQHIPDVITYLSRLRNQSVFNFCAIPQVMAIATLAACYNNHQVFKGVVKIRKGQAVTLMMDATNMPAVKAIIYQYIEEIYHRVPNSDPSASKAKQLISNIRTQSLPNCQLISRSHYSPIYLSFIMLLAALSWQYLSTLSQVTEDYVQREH
Assay: In vitro inhibitory activity against rat liver squalene synthase

IC50	Structure (SMILES)
0.057 µM	C=C(CCC12CCC(C(=O)O)(O1)C(O)(C(=O)O)C(C(=O)O)O2)[C@@H](OC(C)=O)[C@H](C)Cc1ccccc1 (some centres not stated)
8 µM	O=C(O)C1OC(CCCCCCc2ccccc2)OC(C(=O)O)C1(O)C(=O)O (configuration not stated)
